Data published in PMC6718736, “Validation of in vitro methods for human cytochrome P450 enzyme induction: Outcome of a multi-laboratory study” (Toxicology in Vitro, 2019).
Counter-ions that a name gives are not always drawn. Like-named read-outs stand apart in the source and are kept apart here.

Experiments:
[1] = test system: CYP1A2; assay: CYP1A2 enzyme induction assay in cryopreserved HepaRG cells (phenacetin probe, LC/MS); format: in vitro ADME, human; conditions: for Assigned classification CYP1A2: HepaRG; on Assigned classification CYP1A2: key: 1=Positive=inducer; 0=Negative=non-inducer
[2] = test system: CYP2B6; assay: CYP2B6 enzyme induction assay in cryopreserved HepaRG cells (bupropion probe, LC/MS); format: in vitro ADME, human; conditions: for Prediction in vivo inducer: Cmax/F2 >0.5 criterion; for Assigned classification CYP2B6: HepaRG; on Assigned classification CYP2B6: key: 1=Positive=inducer; 0=Negative=non-inducer
[3] = test system: CYP3A4; assay: CYP3A4 enzyme induction assay in cryopreserved HepaRG cells (midazolam probe, LC/MS); format: in vitro ADME, human; conditions: for Assigned classification CYP3A4: HepaRG; on Assigned classification CYP3A4: key: 1=Positive=inducer; 0=Negative=non-inducer
[4] = test system: CYP1A2; assay: CYP1A2 enzyme induction assay in cryopreserved primary human hepatocytes (PHH); format: in vitro ADME; conditions: for Assigned classification CYP1A2: PHH;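 on Assigned classification CYP1A2: code 1 means positive inducer and 0 means non-inducer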
[5] = test system: CYP2B6; assay: CYP2B6 enzyme induction assay in cryopreserved primary human hepatocytes (PHH); format: in vitro ADME; conditions: for Assigned classification CYP2B6: PHH;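 on Assigned classification CYP2B6: code 1 means positive inducer and 0 means non-inducer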
[6] = test system: CYP1A2; conditions: CYP1A2, human; ref Table 1; cited from earlier work
[7] = cited from earlier work
[8] = test system: CYP; conditions: CYP isoforms induced; ref Abadie et al. (2009), Richert et al. (2010), Preissner et al. (2010), Hoffmann et al. (2014); cited from earlier work
[9] = test system: CYP2B6; conditions: cited from earlier work
[10] = test system: CYP3A4; conditions: CYP3A4, human in vivo reference classification (Table 11); cited from earlier work
[11] = test system: CYP3A4; assay: CYP3A4 enzyme induction assay in cryopreserved primary human hepatocytes (PHH); conditions: for Assigned classification CYP3A4: PHH

## CC(C)NCC(O)c1ccc(NS(C)(=O)=O)cc1 (stereo not drawn) [Sotalol hydrochloride]
[1]; CYP1A2, HepaRG cells, Cmax/F2 >0.5 criterion
  Prediction in vivo inducer: No
[1]; CYP1A2, HepaRG cells, positive in one batch in each of the three laboratories
  Induction in vitro: No
[1]; Lab 1, batch 20
  Assigned classification CYP1A2: 0
[1]; Lab 1, batch 35
  Assigned classification CYP1A2: 0
[1]; Lab 1, batch 36
  Assigned classification CYP1A2: 0
[1]; Lab 2, batch 20
  Assigned classification CYP1A2: 0
[1]; Lab 2, batch 35
  Assigned classification CYP1A2: 0
[1]; Lab 2, batch 36
  Assigned classification CYP1A2: 0
[1]; Lab 3, batch 20
  Assigned classification CYP1A2: 1
[1]; Lab 3, batch 35
  Assigned classification CYP1A2: 0
[1]; Lab 3, batch 36
  Assigned classification CYP1A2: 0
[2]; CYP2B6, HepaRG cells, listed as Sotalol
  Prediction in vivo inducer: No
[2]; CYP2B6, HepaRG cells, listed as sotalol
  Prediction in vivo inducer: correctly predicted
[2]; CYP2B6, HepaRG cells, positive in one batch in each of the three laboratories
  Induction in vitro: No
[2]; Lab 1, batch 20
  Assigned classification CYP2B6: 0
[2]; Lab 1, batch 35
  Assigned classification CYP2B6: 0
[2]; Lab 1, batch 36
  Assigned classification CYP2B6: 0
[2]; Lab 2, batch 20
  Assigned classification CYP2B6: 0
[2]; Lab 2, batch 35
  Assigned classification CYP2B6: 0
[2]; Lab 2, batch 36
  Assigned classification CYP2B6: 0
[2]; Lab 3, batch 20
  Assigned classification CYP2B6: 0
[2]; Lab 3, batch 35
  Assigned classification CYP2B6: 0
[2]; Lab 3, batch 36
  Assigned classification CYP2B6: 0
[3]; CYP3A4, HepaRG cells
  Induction in vitro: No
  Prediction in vivo inducer: No
[3]; Lab 1, batch 20
  Assigned classification CYP3A4: 0
[3]; Lab 1, batch 35
  Assigned classification CYP3A4: 0
[3]; Lab 1, batch 36
  Assigned classification CYP3A4: 0
[3]; Lab 2, batch 20
  Assigned classification CYP3A4: 0
[3]; Lab 2, batch 35
  Assigned classification CYP3A4: 0
[3]; Lab 2, batch 36
  Assigned classification CYP3A4: 0
[3]; Lab 3, batch 20
  Assigned classification CYP3A4: 0
[3]; Lab 3, batch 35
  Assigned classification CYP3A4: 0
[3]; Lab 3, batch 36
  Assigned classification CYP3A4: 0
[4]; CYP1A2, PHH, Cmax/F2 >0.5 criterion
  Prediction in vivo inducer: No
[4]; CYP1A2, PHH, positive in one donor in each of the three laboratories
  Induction in vitro: No
[4]; Lab 1, batch 0 6 A
  Assigned classification CYP1A2: 0
[4]; Lab 1, batch 4 0 8
  Assigned classification CYP1A2: 0
[4]; Lab 1, batch 8 0 8
  Assigned classification CYP1A2: 0
[4]; Lab 2, batch 0 6 A
  Assigned classification CYP1A2: 0
[4]; Lab 2, batch 4 0 8
  Assigned classification CYP1A2: 0
[4]; Lab 2, batch 8 0 8
  Assigned classification CYP1A2: 0
[4]; Lab 3, batch 0 6 A
  Assigned classification CYP1A2: 0
[4]; Lab 3, batch 4 0 8
  Assigned classification CYP1A2: 0
[4]; Lab 3, batch 8 0 8
  Assigned classification CYP1A2: 0
[5]; CYP2B6, PHH
  Induction in vitro: No
  Prediction in vivo inducer: No
[5]; CYP2B6, PHH, Cmax/F2 >0.5 criterion
  Prediction in vivo inducer: negative
[5]; Lab 1, batch 0 6 A
  Assigned classification CYP2B6: 0
[5]; Lab 1, batch 4 0 8
  Assigned classification CYP2B6: 0
[5]; Lab 1, batch 8 0 8
  Assigned classification CYP2B6: 0
[5]; Lab 2, batch 0 6 A
  Assigned classification CYP2B6: 0
[5]; Lab 2, batch 4 0 8
  Assigned classification CYP2B6: 0
[5]; Lab 2, batch 8 0 8
  Assigned classification CYP2B6: 0
[5]; Lab 3, batch 0 6 A
  Assigned classification CYP2B6: 1
[5]; Lab 3, batch 4 0 8
  Assigned classification CYP2B6: 0
[5]; Lab 3, batch 8 0 8
  Assigned classification CYP2B6: 0
[6]
  Induction in vivo: No
[7]; human in vivo plasma concentration, normal dose
  Cmax: 2000 nM
[7]; human in vivo, normal dose (Table 10)
  Cmax: 2000 nM
[8]
  CYP induction in vitro (human hepatocytes): No
[9]; CYP2B6, human in vivo reference classification
  Induction in vivo: No
[9]; CYP2B6, human, ref Table 1
  Induction in vivo: No
[10]
  Induction in vivo: No
[11]; CYP3A4, PHH
  Induction in vitro: No
  Prediction in vivo inducer: No
[11]; Lab 1, batch 0 6 A
  Assigned classification CYP3A4: 0
[11]; Lab 1, batch 4 0 8
  Assigned classification CYP3A4: 0
[11]; Lab 1, batch 8 0 8
  Assigned classification CYP3A4: 0
[11]; Lab 2, batch 0 6 A
  Assigned classification CYP3A4: 0
[11]; Lab 2, batch 4 0 8
  Assigned classification CYP3A4: 0
[11]; Lab 2, batch 8 0 8
  Assigned classification CYP3A4: 0
[11]; Lab 3, batch 0 6 A
  Assigned classification CYP3A4: 0
[11]; Lab 3, batch 4 0 8
  Assigned classification CYP3A4: 0
[11]; Lab 3, batch 8 0 8
  Assigned classification CYP3A4: 0
